Legend:
Format in all cases: cell-based
T-47D = assay: NCI 60 five-dose screen T-47D; conditions: Homo sapiens, T47D
SK-MEL-5 = assay: NCI 60 five-dose screen SK-MEL-5; conditions: Homo sapiens
UO-31 = assay: NCI 60 five-dose screen UO-31; conditions: Homo sapiens
TK-10 = assay: NCI 60 five-dose screen TK-10; conditions: Homo sapiens
UACC-257 = assay: NCI 60 five-dose screen UACC-257; conditions: Homo sapiens
U251 = assay: NCI 60 five-dose screen U251; conditions: Homo sapiens
HOP-92 = assay: NCI 60 five-dose screen HOP-92; conditions: Homo sapiens
HCC-2998 = assay: NCI 60 five-dose screen HCC-2998; conditions: Homo sapiens
DU-145 = assay: NCI 60 five-dose screen DU-145; conditions: Homo sapiens
LOX IMVI = assay: NCI 60 five-dose screen LOX IMVI; conditions: Homo sapiens
OVCAR-3 = assay: NCI 60 five-dose screen OVCAR-3; conditions: Homo sapiens
HL-60(TB) = assay: NCI 60 five-dose screen HL-60(TB); conditions: Homo sapiens
SNB-75 = assay: NCI 60 five-dose screen SNB-75; conditions: Homo sapiens
HS 578T = assay: NCI 60 five-dose screen HS 578T; conditions: Homo sapiens
OVCAR-5 = assay: NCI 60 five-dose screen OVCAR-5; conditions: Homo sapiens
A549/ATCC = assay: NCI 60 five-dose screen A549/ATCC; conditions: Homo sapiens
A498 = assay: NCI 60 five-dose screen A498; conditions: Homo sapiens
K-562 = assay: NCI 60 five-dose screen K-562; conditions: Homo sapiens
NCI-H322M = assay: NCI 60 five-dose screen NCI-H322M; conditions: Homo sapiens
MDA-MB-468 = assay: NCI 60 five-dose screen MDA-MB-468; conditions: Homo sapiens
NCI/ADR-RES = assay: NCI 60 five-dose screen NCI/ADR-RES; conditions: Homo sapiens
NCI-H226 = assay: NCI 60 five-dose screen NCI-H226; conditions: Homo sapiens
HOP-62 = assay: NCI 60 five-dose screen HOP-62; conditions: Homo sapiens
SF-268 = assay: NCI 60 five-dose screen SF-268; conditions: Homo sapiens
OVCAR-8 = assay: NCI 60 five-dose screen OVCAR-8; conditions: Homo sapiens
COLO 205 = assay: NCI 60 five-dose screen COLO 205; conditions: Homo sapiens
KM12 = assay: NCI 60 five-dose screen KM12; conditions: Homo sapiens
SK-MEL-28 = assay: NCI 60 five-dose screen SK-MEL-28; conditions: Homo sapiens
[1] = read-out: LC50 (the source's name)
[2] = read-out: LC50 (the source's name) (converted)

**Q.** Which results are given for `COc1cc(Cn2c(C(F)(F)F)cc3c(Cl)ncnc32)ccn1` [NUCC-0226694]?
**A.** GI50 (T-47D): 13.5 µM; IC50 (T-47D): 38 µM; IC (TGI) (T-47D): 61.7 µM; CC50 (T-47D; [1]): ≥ 100 µM; GI50 (SK-MEL-5): 3.89 µM; IC50 (SK-MEL-5): 6.92 µM; IC (TGI) (SK-MEL-5): 14.1 µM; CC50 (SK-MEL-5; [2]): 38 µM; GI50 (UO-31): 8.71 µM; IC50 (UO-31): 18.2 µM; IC (TGI) (UO-31): 24 µM; CC50 (UO-31; [2]): 61.7 µM; GI50 (TK-10): 19.1 µM; IC50 (TK-10): 45.7 µM; IC (TGI) (TK-10): 46.8 µM; CC50 (TK-10; [2]): ≥ 100 µM; GI50 (UACC-257): 8.51 µM; IC50 (UACC-257): 19.5 µM; IC (TGI) (UACC-257): 21.9 µM; CC50 (UACC-257; [2]): 49 µM; GI50 (U251; U-251): 15.1 µM; IC50 (U251; U-251): 26.9 µM; IC (TGI) (U251; U-251): 28.8 µM; CC50 (U251; U-251, read-out: LC50 (the source's name) (converted)): 56.2 µM; GI50 (HOP-92): 10.7 µM; IC50 (HOP-92): 33.9 µM; IC (TGI) (HOP-92): 30.2 µM; CC50 (HOP-92; [2]): 85.1 µM; GI50 (HCC-2998): 1.78 µM; IC50 (HCC-2998): 3.16 µM; IC (TGI) (HCC-2998): 3.24 µM; CC50 (HCC-2998; [2]): 6.03 µM; GI50 (DU-145): 1.78 µM; IC50 (DU-145): 3.09 µM; IC (TGI) (DU-145): 3.24 µM; CC50 (DU-145; [2]): 5.89 µM; GI50 (LOX IMVI): 1.66 µM; IC50 (LOX IMVI): 2.88 µM; IC (TGI) (LOX IMVI): 3.16 µM; CC50 (LOX IMVI; [2]): 6.03 µM; GI50 (OVCAR-3): 2.34 µM; IC50 (OVCAR-3): 4.07 µM; IC (TGI) (OVCAR-3): 7.08 µM; CC50 (OVCAR-3; [2]): 30.9 µM; GI50 (HL-60(TB)): 2.14 µM; IC50 (HL-60(TB)): 3.39 µM; IC (TGI) (HL-60(TB)): 7.24 µM; CC50 (HL-60(TB); [2]): ≥ 100 µM; GI50 (SNB-75): 1.78 µM; IC50 (SNB-75): 6.61 µM; IC (TGI) (SNB-75): 7.24 µM; CC50 (SNB-75; [2]): 27.5 µM; GI50 (HS 578T): 3.16 µM; IC50 (HS 578T): 24.5 µM; IC (TGI) (HS 578T): 16.6 µM; CC50 (HS 578T; [1]): ≥ 100 µM; GI50 (OVCAR-5): 15.8 µM; IC50 (OVCAR-5): 29.5 µM; IC (TGI) (OVCAR-5): 32.4 µM; CC50 (OVCAR-5; [2]): 66.1 µM; GI50 (A549/ATCC): 16.6 µM; IC50 (A549/ATCC): 27.5 µM; IC (TGI) (A549/ATCC): 38 µM; CC50 (A549/ATCC; [2]): 89.1 µM; GI50 (A498): 15.8 µM; IC50 (A498): 33.1 µM; IC (TGI) (A498): 30.9 µM; CC50 (A498; [2]): 58.9 µM; GI50 (K-562; K562): 2.34 µM; IC50 (K-562; K562): 2.69 µM; IC (TGI) (K-562; K562): 100 µM; CC50 (K-562; K562, read-out: LC50 (the source's name)): ≥ 100 µM; GI50 (NCI-H322M): 1.7 µM; IC50 (NCI-H322M): 3.16 µM; IC (TGI) (NCI-H322M): 3.31 µM; CC50 (NCI-H322M; [2]): 6.31 µM; GI50 (MDA-MB-468): 1.78 µM; IC50 (MDA-MB-468): 3.98 µM; IC (TGI) (MDA-MB-468): 3.8 µM; CC50 (MDA-MB-468; [2]): 7.94 µM; GI50 (NCI/ADR-RES): 15.1 µM; IC50 (NCI/ADR-RES): 27.5 µM; IC (TGI) (NCI/ADR-RES): 33.9 µM; CC50 (NCI/ADR-RES; [2]): 74.1 µM; GI50 (NCI-H226): 15.5 µM; IC50 (NCI-H226): 33.1 µM; IC (TGI) (NCI-H226): 32.4 µM; CC50 (NCI-H226; [2]): 67.6 µM; GI50 (HOP-62): 14.5 µM; IC50 (HOP-62): 27.5 µM; IC (TGI) (HOP-62): 29.5 µM; CC50 (HOP-62; [2]): 61.7 µM; GI50 (SF-268): 2.45 µM; IC50 (SF-268): 4.57 µM; IC (TGI) (SF-268): 9.33 µM; CC50 (SF-268; [2]): 41.7 µM; GI50 (OVCAR-8): 11.5 µM; IC50 (OVCAR-8): 19.1 µM; IC (TGI) (OVCAR-8): 26.3 µM; CC50 (OVCAR-8; [2]): 61.7 µM; GI50 (COLO 205): 15.1 µM; IC50 (COLO 205): 26.3 µM; IC (TGI) (COLO 205): 46.8 µM; CC50 (COLO 205; [2]): ≥ 100 µM; GI50 (KM12): 13.5 µM; IC50 (KM12): 22.9 µM; IC (TGI) (KM12): 30.2 µM; CC50 (KM12; [2]): 69.2 µM; GI50 (SK-MEL-28): 4.57 µM; IC50 (SK-MEL-28): 10 µM; IC (TGI) (SK-MEL-28): 16.2 µM; CC50 (SK-MEL-28; [2]): 40.7 µM

— patent publication US20240109903A1, “SUBSTITUTED HETEROCYCLES FOR TREATING CANCER” (Northwestern University, priority 2022, published 2024)
